For this assay, the target named is T1, TRPV3 (hTRPV3, transient receptor potential vanilloid 3) (Homo sapiens, UniProt Q8NET8).
T1 construct: hTRPV3 (NM_145068.4)
T1 sequence (Q8NET8 1-790): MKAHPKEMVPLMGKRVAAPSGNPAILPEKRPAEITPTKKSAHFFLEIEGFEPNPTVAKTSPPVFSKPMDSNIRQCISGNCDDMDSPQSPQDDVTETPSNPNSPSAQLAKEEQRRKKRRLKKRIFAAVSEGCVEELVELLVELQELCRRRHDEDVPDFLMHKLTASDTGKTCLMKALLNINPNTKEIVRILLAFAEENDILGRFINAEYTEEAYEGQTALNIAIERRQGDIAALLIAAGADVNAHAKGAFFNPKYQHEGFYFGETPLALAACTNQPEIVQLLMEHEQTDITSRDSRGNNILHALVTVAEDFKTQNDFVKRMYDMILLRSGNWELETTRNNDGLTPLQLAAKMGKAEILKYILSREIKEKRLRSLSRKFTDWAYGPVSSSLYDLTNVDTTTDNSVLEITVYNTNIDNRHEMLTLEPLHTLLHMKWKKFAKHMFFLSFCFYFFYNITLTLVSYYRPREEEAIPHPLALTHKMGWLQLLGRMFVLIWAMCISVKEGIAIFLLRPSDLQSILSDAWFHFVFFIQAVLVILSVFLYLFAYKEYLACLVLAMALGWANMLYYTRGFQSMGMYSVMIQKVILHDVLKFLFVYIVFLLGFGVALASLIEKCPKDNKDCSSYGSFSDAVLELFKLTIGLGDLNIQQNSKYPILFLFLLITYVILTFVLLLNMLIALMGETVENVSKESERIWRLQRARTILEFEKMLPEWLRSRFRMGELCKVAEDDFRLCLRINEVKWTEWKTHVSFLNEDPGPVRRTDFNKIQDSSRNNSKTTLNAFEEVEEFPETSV
Description: whole-cell and inside-out single-channel patch clamp in HEK293T cells; site-directed mutagenesis. It counts as cell-based.

Molecules are shown by their SMILES.

With `C[C@@H]1O[C@@H](O[C@@H]2[C@@H](O)[C@H](OCCc3ccc(O)c(O)c3)O[C@H](CO[C@@H]3O[C@H](CO)[C@@H](O)[C@H](O)[C@H]3O)[C@H]2OC(=O)/C=C/c2ccc(O)c(O)c2)[C@H](O)[C@H](O)[C@H]1O` [echinacoside], the concentration for half-maximal inhibition (IC50) was 21.9 ± 1.28 µM.

Usually IC50 stands for the concentration needed to halve the response being measured. Higher therefore signals weaker potency.

Values taken from PMC12073194, “Echinacoside Ameliorates UVB-Induced Skin Damage Through Selective Inhibition of the Cutaneous TRPV3 Channel” (Molecules, 2025).
